The values below are quoted from earlier work in patent publication EP0763114B1, “HEPATITIS G VIRUS AND MOLECULAR CLONING THEREOF” (priority 1994, dated 1995).

This data set relates to HCV. As to conditions: individuals infected with HCV, while ribavirin was administered.

`NC(=O)c1ncn([C@@H]2O[C@H](CO)[C@@H](O)[C@H]2O)n1` [ribavirin, 1-B-D-ribofuranosyl-1-2,4-triazole, 3-carboxamide]: the “serum levels of alanine aminotransferase (ALT)” value was “significant reductions” and the viral titer result was “significant reductions”.
